Biological target: Carbonic anhydrase 9 (Homo sapiens, UniProt Q16790)
Description: Inhibition of recombinant human carbonic anhydrase 9 incubated for 15 mins prior to testing measured for 5 to 10 secs by phenol red-based stopped-flow CO2 hydration assay

SMILES | Ki [µM]
NS(=O)(=O)c1ccc(NC(=O)Nc2nc(Nc3ccccc3)nc(N3CCOCC3)n2)cc1 | 0.0369
NS(=O)(=O)c1ccc(NC(=O)Nc2nc(Cl)nc(Nc3ccc(F)cc3)n2)cc1 | 0.0468
NS(=O)(=O)c1ccc(NC(=O)Nc2nc(Cl)nc(Nc3ccc(Cl)cc3)n2)cc1 | 0.044
NS(=O)(=O)c1ccc(NC(=O)Nc2nc(Nc3ccc(Cl)cc3)nc(N3CCCCC3)n2)cc1 | 0.0433
NS(=O)(=O)c1ccc(NC(=O)Nc2nc(Nc3ccc(Cl)c(Cl)c3)nc(N3CCOCC3)n2)cc1 | 0.105
NS(=O)(=O)c1ccc(NC(=O)Nc2nc(Nc3ccc(Cl)c(Cl)c3)nc(N3CCCCC3)n2)cc1 | 0.0879
CN(C)c1nc(NC(=O)Nc2ccc(S(N)(=O)=O)cc2)nc(Nc2ccccc2)n1 | 0.019
NS(=O)(=O)c1ccc(NC(=O)Nc2nc(Nc3ccc(S(N)(=O)=O)cc3)nc(N3CCOCC3)n2)cc1 | 0.0249
CN(C)c1nc(NC(=O)Nc2ccc(S(N)(=O)=O)cc2)nc(Nc2ccc(F)cc2)n1 | 0.0669
NS(=O)(=O)c1ccc(NC(=O)Nc2nc(Nc3ccc(S(N)(=O)=O)cc3)nc(N3CCCCC3)n2)cc1 | 0.0284
NS(=O)(=O)c1ccc(NC(=O)Nc2nc(Cl)nc(Nc3ccc(S(N)(=O)=O)cc3)n2)cc1 | 0.0118
CN(C)c1nc(NC(=O)Nc2ccc(S(N)(=O)=O)cc2)nc(Nc2ccc(Cl)cc2)n1 | 0.0381
NS(=O)(=O)c1ccc(NC(=O)Nc2nc(Nc3ccc(Cl)cc3)nc(N3CCOCC3)n2)cc1 | 0.0286
NS(=O)(=O)c1ccc(NC(=O)Nc2nc(Nc3ccc(F)cc3)nc(N3CCOCC3)n2)cc1 | 0.185
NS(=O)(=O)c1ccc(NC(=O)Nc2nc(Nc3ccccc3)nc(N3CCCCC3)n2)cc1 | 0.0323
NS(=O)(=O)c1ccc(NC(=O)Nc2nc(Cl)nc(Nc3ccc(Cl)c(Cl)c3)n2)cc1 | 0.0356
NS(=O)(=O)c1ccc(NC(=O)Nc2nc(Nc3ccc(F)cc3)nc(N3CCCCC3)n2)cc1 | 0.151
CN(C)c1nc(NC(=O)Nc2ccc(S(N)(=O)=O)cc2)nc(Nc2ccc(S(N)(=O)=O)cc2)n1 | 0.0146
CN(C)c1nc(NC(=O)Nc2ccc(S(N)(=O)=O)cc2)nc(Nc2ccc(Cl)c(Cl)c2)n1 | 0.0235
NS(=O)(=O)c1ccc(NC(=O)Nc2nc(Cl)nc(Nc3ccccc3)n2)cc1 | 0.0141

Reference: ChEMBL document CHEMBL4400566, “Discovery of new ureido benzenesulfonamides incorporating 1,3,5-triazine moieties as carbonic anhydrase I, II, IX and XII inhibitors” (Bioorg Med Chem, 2019)
